Test results as given in patent publication US20240115557A1, “INHIBITORS OF RNA-GUIDED NUCLEASES AND USES THEREOF” (The Brigham and Women's Hospital, Inc., priority 2022, published 2024).

Tests used:
[1] = Plasma stability assay; assay type: in vitro ADME; settings: 2 μM, 50% mouse plasma in PBS, 2 h
Experimental: The stability of the compound in mouse plasma was assessed following a reported protocol.^50 BRD7586 (2 μM) was incubated with 50% mouse plasma (K2 EDTA, BioIVT) in PBS for 2 h in duplicate. Propantheline was included as a control.

[2] = tested on: U2OS.eGFP.PEST cells; assay: eGFP fluorescence counter assay in absence of SpCas9:gRNA; assay type: cell-based, human
Experimental: FIG. 73A-73E Counter assays to validate BRD7586 in cells FIG. 73A,B Immunoblotting analysis of SpCas9 expression in (A) HEK293T cells or (B) U20S.eGFP.PEST cells transfected with SpCas9 plasmid were incubated with BRD7586 for 24 h (n=2 or 3 independent experiments). p>0.05 for BRD7586 at […] compared to DMSO in U20S.eGFP.PEST cells (paired t test, two-tailed) FIG. 73C Changes in the fluorescence intensity in the presence of BRD7586 in U20S.eGFP.PEST. Cells were treated with the compound for 24 h, and the fluorescence was measured to calculate the fraction of GFP-positive populations. Means from 3 independent experiments are shown. […] Error bars represent SD from 3 independent experiments. For SpCas9, p≤0.01 for BRD7586 at 15 μM compared to DMSO. For LbCas12a, p>0.05 for BRD7586 at 15 μM compared to DMSO in all experiments (unpaired t test, two-tailed).

[3] = target: SpCas9:gRNA complex (Streptococcus pyogenes serotype M1, UniProt Q99ZW2); assay: STD NMR binding assay; settings: 20 μM compound, 5 μM SpCas9:gRNA
Chain of SpCas9:gRNA complex (Q99ZW2 whole entry, one chain of several): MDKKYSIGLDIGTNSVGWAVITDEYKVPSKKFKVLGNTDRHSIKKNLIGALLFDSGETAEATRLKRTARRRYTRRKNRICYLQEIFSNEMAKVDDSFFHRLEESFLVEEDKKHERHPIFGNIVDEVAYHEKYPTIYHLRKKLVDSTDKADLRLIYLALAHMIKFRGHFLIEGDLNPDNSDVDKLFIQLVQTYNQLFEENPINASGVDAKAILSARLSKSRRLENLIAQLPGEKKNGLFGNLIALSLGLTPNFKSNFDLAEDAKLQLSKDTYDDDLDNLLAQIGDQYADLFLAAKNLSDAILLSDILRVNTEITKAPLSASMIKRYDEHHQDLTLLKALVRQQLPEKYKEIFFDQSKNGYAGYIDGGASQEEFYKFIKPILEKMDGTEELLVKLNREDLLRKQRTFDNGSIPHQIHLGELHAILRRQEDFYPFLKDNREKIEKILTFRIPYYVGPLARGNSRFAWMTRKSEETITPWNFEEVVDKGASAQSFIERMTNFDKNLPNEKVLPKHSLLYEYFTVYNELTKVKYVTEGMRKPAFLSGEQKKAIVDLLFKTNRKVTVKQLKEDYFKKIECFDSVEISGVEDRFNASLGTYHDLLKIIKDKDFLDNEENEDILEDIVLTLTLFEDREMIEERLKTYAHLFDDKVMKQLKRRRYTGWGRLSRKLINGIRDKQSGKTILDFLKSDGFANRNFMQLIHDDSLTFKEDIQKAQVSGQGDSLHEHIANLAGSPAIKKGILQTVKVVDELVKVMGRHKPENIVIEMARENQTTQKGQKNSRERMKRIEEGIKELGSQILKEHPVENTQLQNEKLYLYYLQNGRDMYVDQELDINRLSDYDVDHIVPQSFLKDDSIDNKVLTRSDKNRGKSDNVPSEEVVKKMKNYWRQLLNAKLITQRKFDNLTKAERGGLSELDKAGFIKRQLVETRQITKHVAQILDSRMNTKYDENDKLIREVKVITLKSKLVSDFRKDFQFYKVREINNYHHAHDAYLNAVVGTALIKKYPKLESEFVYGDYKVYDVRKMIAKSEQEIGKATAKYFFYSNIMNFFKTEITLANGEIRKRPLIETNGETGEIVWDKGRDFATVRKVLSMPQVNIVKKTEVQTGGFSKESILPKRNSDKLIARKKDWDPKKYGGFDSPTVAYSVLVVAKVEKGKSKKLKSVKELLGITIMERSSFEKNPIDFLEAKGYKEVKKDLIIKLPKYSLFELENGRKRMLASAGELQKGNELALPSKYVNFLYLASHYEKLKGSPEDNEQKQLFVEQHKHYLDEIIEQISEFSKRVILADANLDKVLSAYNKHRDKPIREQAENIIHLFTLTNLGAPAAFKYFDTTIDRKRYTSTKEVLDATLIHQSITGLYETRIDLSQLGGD
Experimental: All samples were prepared with 20 μM of BRD7586 in a 20 mM […] buffer (pH 7.4) in D2O with or without 5 μM of SpCas9:gRNA in a 3 mm NMR tube. Experiments were performed on a 600 MHz (^19F: 564.71 MHz) Bruker AVANCE III NMR spectrometer equipped with a 5 mm QCI-F CryoProbe and a SampleJet for automated sample handling. To acquire the spectra, a standard one-pulse STD experiment with WALTZ-16 for proton decoupling during acquisition, a 5 s recycle delay, and 256 scans were used. All spectra were recorded at 280 K. NMR data were apodized with a 1-Hz exponential function prior to Fourier transformation. All spectra were baseline corrected, and peak widths and intensities were extracted using the automated line-fitting feature provided with the MNova software package.

[4] = tested on: LbCas12a; assay: eGFP disruption assay, LbCas12a RNP; assay type: cell-based; settings: RNP delivery, U2OS.eGFP.PEST, 24 h
[5] = target: SpCas9:gRNA complex and DNA (Streptococcus pyogenes serotype M1, UniProt Q99ZW2); assay: Fluorescence polarization SpCas9:PAM DNA interaction assay; assay type: binding
Chain of SpCas9:gRNA complex and DNA (Q99ZW2 whole entry, one chain of several): as above
Description: The fluorescence Polarization-based Assay may monitor the change in the fluorescence polarization of the fluorophore-labelled PAM-rich target DNA (e.g., a 12PAM-DNA) upon binding to [Cas9:guideRNA] complex.
Fluorescence polarization is a useful technique to monitor the interaction between two molecules, including for example, Cas9-gRNA (ribonucleoprotein) complex and target DNA (e.g., 12PAM).
Fluorescence polarization may be used to measure the binding constants and kinetics of reactions that cause a change in the rotational time of the molecules. The technique is based on the change in the tumbling rate or mass after complexation. […] The degree of binding is calculated by using the difference in anisotropy of the partially bound, free and fully bound (large excess of protein) states measured by titrating the two binding partners. […]
Development of cumulative activity assay (CAA) for SpCas9. Applicants previously reported an assay that uses fluorescence polarization (FP) to monitor the binding between a fluorophore-labeled poly-PAM DNA oligonucleotide and SpCas9 charged with a non-targeting gRNA.^17 This assay permitted screening for small molecules that interfered with the early steps of the SpCas9 catalytic mechanism, namely, binding of SpCas9 and the relatively low-affinity NGG PAM DNA sequence. […]

[6] = target: SpCas9 (Streptococcus pyogenes serotype M1, UniProt Q99ZW2); assay: Targeted deep sequencing of indels (eGFP, EMX1, FANCF, VEGFA); assay type: cell-based
Chain of SpCas9 (Q99ZW2 whole entry): as the sequence (Q99ZW2 whole entry, one chain of several) above
Experimental: U2OS.eGFP.PEST cells were nucleofected as described above for the eGFP disruption assay, plated in a 24-well plate at the density of 150,000 cells per well, and incubated with BRD7586 for 24 h. Then, the genomic DNA was extracted using DNeasy Blood & Tissue Kit (Qiagen). HEK293T cells were plated in a 24-well plate at the density of 100,000 cells per well. The next day, cells were transfected with 500 ng of SpCas9 plasmid and 250 ng of EMX1-, VEGFA-, or FANCF-targeting gRNA plasmid using Lipofectamine 3000 (Invitrogen). Indicated amount of compound was added at the time of transfection, cells were incubated for 24 h or 48 h, and genomic DNA was extracted. Next-generation sequencing (NGS) samples were prepared using a two-step PCR protocol. NGS libraries were quantified using KAPA Library Quantification Kit (Roche) and diluted to 4 nM. Sequencing of the pooled library was performed using MiSeq Reagent Kit v2 (Illumina). The percentage of indel in the demultiplexed sequence files was analyzed using the CRISPResso2 software from the Pinello Lab.^49

Question: For `O=C(CCS(=O)(=O)c1ccc(Cl)cc1)Nc1nc(-c2ccncc2)cs1` [BRD7586], which “Stability in mouse plasma” value [1] is on record?
Answer: 40%

Question: What about the “Effect on eGFP expression in the absence of SpCas9:gRNA” value [2] of the same compound?
Answer: without affecting the eGFP expression

Question: What about the “STD NMR signal” value [3] of the same compound?
Answer: observed the STD NMR signal from marked protons

Question: And the “Effect on activity of LbCas12a” value [4]?
Answer: did not affect the activity

Question: What about the “Inhibition of binding between SpCas9:gRNA complex and DNA” value [5] of the same compound?
Answer: does not inhibit the binding

Question: What about the “Specificity of SpCas9 (on-target versus off-target ratio)” value ([6]; HEK293T, EMX1, FANCF or VEGFA, 48 h) of the same compound?
Answer: enhanced the specificity of SpCas9

Question: And the “Inhibition of indel activity by next-generation sequencing” value ([6]; multiple genomic loci)?
Answer: inhibited the indel activity of SpCas9 at multiple genomic loci
